According to patent publication US20250163057A1, “DCN-1 MODULATING COMPOUNDS AND METHODS OF USE THEREOF” (Cellarity, Inc., priority 2023, published 2025):
Read-outs that look alike come from different tables or passages of the source.

Key:
[1] = system: fetal hemoglobin gene HBG1; experiment: HBG1 Nanostring Assay in CD34+ HSPC erythroid differentiation culture; format: cell-based, human; conditions: for EC50: Homo sapiens, 240 h, HBG1 induction, Day10 of erythroid differentiation; for Nanostring Ymax obs (%): relative to a control compound (C1)
How it was run: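 HBG1 counts came from direct nCounter hybridization (67° C, 22 h) of day-10 lysates, normalized to ERCC positive controls and a housekeeping gene, giving EC50 and Ymax versus a reference compound. Compounds in 0.1% DMSO were present from day −2 while cells underwent EPO/SCF/IL-3 erythroid differentiation, with IL-3 dropped at day 7, at 37° C.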

DCN1 protein = DCN1 protein (Homo sapiens (Human), UniProt Q96GG9); experiment: Intact Protein MS Analysis with the RapidFire-TOF System (covalent adduct formation); format: binding; conditions: MS Emax; 400 nM DCN1, 3 hours at room temperature
How it was run: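 Tag-cleaved human DCN1 (400 nM) expressed in E. coli, in 25 mM Tris-HCl, 200 mM NaCl, 1 mM DTT, was incubated with 11 compound concentrations for 3 h at room temperature and quenched with 0.2% formic acid. Intact-protein Q-TOF MS with deconvolution detected the compound adduct mass.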

[2] = biological target: DCN1 (DCUND1) protein PONY domain (Homo sapiens (Human), UniProt Q96GG9); experiment: TR-FRET assay, DCN1 binding with FAM-labeled probe
How it was run: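 TR-FRET ratio (Tb-DCN1 to FAM-probe) read at 1, 5 and 24 hrs after compound addition. Protein: recombinant PONY domain from E. coli, biotinylated and coupled to streptavidin terbium. Either 5 nM DCN1 with 20 nM FAM-probe, or 0.31 nM DCN1 with 100 nM FAM-labelled plus 800 nM unlabelled probe.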

[3] = system: Cullin-3 (CUL3) neddylation; experiment: AlphaLISA assay for Cullin-3 (CUL3) neddylation in TF 1 cells; format: cell-based; conditions: Homo sapiens, TF-1, 3 h, 3 hours treatment
How it was run: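 Neddylated CUL3 was quantified by AlphaLISA in lysates of TF 1 cells exposed for 3 h to test compound in IMDM without supplements. Percent inhibition set between vehicle and 1 μM DI-1548 positive control; IC50 derived by Hill-equation fitting of dose-response curves.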

[4] = 24 hr after treatment with compound, read-out: TR FRET IC50 24 hr
[5] = read-out: TR FRET IC50 1 hr, 1 hr after treatment with compound
[6] = TR FRET IC50 1 hr (nM), 1 hr after treatment with compound

DCN1 protein, sequence (Q96GG9 whole entry): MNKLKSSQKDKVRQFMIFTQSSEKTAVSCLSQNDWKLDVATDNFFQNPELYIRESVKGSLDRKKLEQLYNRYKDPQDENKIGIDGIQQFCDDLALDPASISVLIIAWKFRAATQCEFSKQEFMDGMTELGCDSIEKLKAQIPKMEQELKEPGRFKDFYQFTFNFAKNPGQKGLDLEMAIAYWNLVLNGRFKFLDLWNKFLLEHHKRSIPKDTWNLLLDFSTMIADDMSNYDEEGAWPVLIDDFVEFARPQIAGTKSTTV
DCN1 (DCUND1) protein PONY domain, sequence (Q96GG9 60-248): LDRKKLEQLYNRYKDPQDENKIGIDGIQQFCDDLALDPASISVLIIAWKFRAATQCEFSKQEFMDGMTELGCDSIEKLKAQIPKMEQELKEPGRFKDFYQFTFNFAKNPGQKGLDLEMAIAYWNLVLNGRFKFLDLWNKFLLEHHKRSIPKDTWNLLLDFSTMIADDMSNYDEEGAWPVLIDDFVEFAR

SMILES | EC50 [1] [nM] | Nanostring Ymax obs (%) [1] | % Adduct Formation (DCN1 protein) | IC50 [2, 4] [nM] | IC50 [2, 5] [nM] | IC50 [3] [nM] | IC50 [2, 6] [nM]
C=C(CN1CCOCC1)C(=O)N[C@H](C)c1nn(-c2ccccc2)c2c1[C@H](c1ccc(F)cc1)[C@H](NC(=O)c1cccc(C(F)(F)F)c1)C(=O)N2CC (mixture of isomers) [Compound I-8] | > 1000 | ++ (Nanostring Ymax greater than 50.0 and less than or equal to 100.0) | + (MS Emax % adduct formation greater than or equal to 0.0 and less than or equal to 30.0) | ≤ 200 | ≤ 200 | 100 to 1000 | –
C=CS(=O)(=O)N[C@H](C)c1nn(-c2ccccc2)c2c1[C@H](c1ccc(F)cc1)[C@H](NC(=O)c1cccc(C(F)(F)F)c1)C(=O)N2CC (mixture of isomers) [Compound I-74] | 100 to 1000 | ++ (Nanostring Ymax greater than 50.0 and less than or equal to 100.0) | +++ (MS Emax % adduct formation greater than 80.0 and less than or equal to 100.0) | ≤ 200 | ≤ 200 | ≤ 100 | –
C=C(C(=O)NCc1nn(-c2ccccc2)c2c1[C@@H](c1ccc(F)cc1)[C@H](NC(=O)c1cccc(C(F)(F)F)c1)C(=O)N2CC)C(C)N1CCOCC1 (mixture of isomers) [Compound I-88] | > 1000 | + (Nanostring Ymax greater than or equal to 0.0 and less than or equal to 50.0) | + (MS Emax % adduct formation greater than or equal to 0.0 and less than or equal to 30.0) | ≤ 200 | ≤ 200 | ≤ 100 | –
CCN1C(=O)[C@@H](NC(=O)c2cccc(C(F)(F)F)c2)[C@@H](c2ccc(F)cc2)c2c(NC(=O)[C@@H](C)Cl)nn(-c3ccccc3)c21 (mixture of isomers) [Compound I-101] | > 1000 | ++ (Nanostring Ymax greater than 50.0 and less than or equal to 100.0) | + (MS Emax % adduct formation greater than or equal to 0.0 and less than or equal to 30.0) | 200 to 1000 | – | 100 to 1000 | 200 to 1000
C=CC(=O)N[C@@H](C)c1nn(-c2ccccc2)c2c1[C@H](c1ccc(F)cc1)[C@H](NC(=O)c1cccc(C(F)(F)F)c1)C(=O)N2CC (mixture of isomers) [Compound I-143] | > 1000 | + (Nanostring Ymax greater than or equal to 0.0 and less than or equal to 50.0) | + (MS Emax % adduct formation greater than or equal to 0.0 and less than or equal to 30.0) | 200 to 1000 | – | > 1000 | 200 to 1000
CCN1C(=O)[C@@H](NC(=O)c2cccc(C(F)(F)F)c2)[C@@H](c2ccc(F)cc2)c2c(C(=O)N3CCCC[C@H]3C#N)nn(-c3ccccc3)c21 (mixture of isomers) [Compound I-270] | 100 to 1000 | ++ (Nanostring Ymax greater than 50.0 and less than or equal to 100.0) | +++ (MS Emax % adduct formation greater than 80.0 and less than or equal to 100.0) | ≤ 200 | ≤ 200 | ≤ 100 | –
CCN1C(=O)[C@@H](NC(=O)c2cccc(C(F)(F)F)c2)[C@@H](c2ccc(F)cc2)c2c(C(=O)N3C[C@H](F)C[C@H]3C#N)nn(-c3ccccc3)c21 (mixture of isomers) [Compound I-273] | – | +++ (Nanostring Ymax greater than 100.0) | +++ (MS Emax % adduct formation greater than 80.0 and less than or equal to 100.0) | ≤ 200 | ≤ 200 | ≤ 100 | –
CCN1C(=O)[C@@H](NC(=O)c2cccc(C(F)(F)F)c2)[C@@H](c2ccc(F)cc2)c2c(C(=O)N3CCC[C@H]3C#N)nn(C3CCOCC3)c21 (mixture of isomers) [Compound I-292] | ≤ 100 | +++ (Nanostring Ymax greater than 100.0) | +++ (MS Emax % adduct formation greater than 80.0 and less than or equal to 100.0) | ≤ 200 | ≤ 200 | ≤ 100 | –
CCN1C(=O)[C@@H](NC(=O)c2cccc(C(F)(F)F)c2)[C@@H](C)c2c(C(=O)N3[C@H](C#N)C[C@H]4C[C@H]43)nn(C3CCOCC3)c21 (mixture of isomers) [Compound I-386] | ≤ 100 | +++ (Nanostring Ymax greater than 100.0) | +++ (MS Emax % adduct formation greater than 80.0 and less than or equal to 100.0) | ≤ 200 | ≤ 200 | ≤ 100 | –
C=CS(=O)(=O)N(C)Cc1nn(-c2ccccc2)c2c1[C@H](c1ccc(F)cc1)[C@H](NC(=O)c1cccc(C(F)(F)F)c1)C(=O)N2CC (racemic) [Compound I-1] | > 1000 | ++ (Nanostring Ymax greater than 50.0 and less than or equal to 100.0) | +++ (MS Emax % adduct formation greater than 80.0 and less than or equal to 100.0) | ≤ 200 | ≤ 200 | ≤ 100 | –
C=C(CC(=O)NCc1nn(-c2ccccc2)c2c1[C@H](c1ccc(F)cc1)[C@H](NC(=O)c1cccc(C(F)(F)F)c1)C(=O)N2CC)C(=O)OC (racemic) [Compound I-4] | 100 to 1000 | ++ (Nanostring Ymax greater than 50.0 and less than or equal to 100.0) | +++ (MS Emax % adduct formation greater than 80.0 and less than or equal to 100.0) | ≤ 200 | – | ≤ 100 | ≤ 200
CCN1C(=O)[C@@H](NC(=O)c2cccc(C(F)(F)F)c2)[C@@H](c2ccc(F)cc2)c2c(CNC(=O)C(C)(C)C#N)nn(-c3ccccc3)c21 (racemic) [Compound I-7, rac-N-((4R,5R)-3-((2-cyano-2-methylpropanamido)methyl)-7-ethyl-4-(4-fluorophenyl)-6-oxo-1-phenyl-4,5,6,7-tetrahydro-1H-pyrazolo[3,4-b]pyridine-5-yl)-3-(trifluoromethyl)benzamide] | > 1000 | + (Nanostring Ymax greater than or equal to 0.0 and less than or equal to 50.0) | + (MS Emax % adduct formation greater than or equal to 0.0 and less than or equal to 30.0) | 1000 to 3000 | – | 100 to 1000 | 1000 to 3000
CCN1C(=O)[C@@H](NC(=O)c2cccc(C(F)(F)F)c2)[C@@H](c2ccc(F)cc2)c2c(CNC(=O)C#CCN(C)C)nn(-c3ccccc3)c21 (racemic) [Compound I-19, rac-N-((4R,5R)-3-((4-(dimethylamino)but-2-ynamido)methyl)-7-ethyl-4-(4-fluorophenyl)-6-oxo-1-phenyl-4,5,6,7-tetrahydro-1H-pyrazolo[3,4-b]pyridine-5-yl)-3-(trifluoromethyl)benzamide] | ≤ 100 | +++ (Nanostring Ymax greater than 100.0) | +++ (MS Emax % adduct formation greater than 80.0 and less than or equal to 100.0) | ≤ 200 | – | ≤ 100 | ≤ 200
C=C(C)C(=O)Nc1nn(-c2ccccc2)c2c1[C@H](c1ccc(F)cc1)[C@H](NC(=O)c1cccc(C(F)(F)F)c1)C(=O)N2CC (racemic) [Compound I-26] | 100 to 1000 | ++ (Nanostring Ymax greater than 50.0 and less than or equal to 100.0) | + (MS Emax % adduct formation greater than or equal to 0.0 and less than or equal to 30.0) | ≤ 200 | ≤ 200 | 100 to 1000 | –
C/C=C(\CN1CCOCC1)C(=O)NCc1nn(-c2ccccc2)c2c1[C@@H](c1ccc(F)cc1)[C@H](NC(=O)c1cccc(C(F)(F)F)c1)C(=O)N2CC (racemic) [Compound I-27] | 100 to 1000 | ++ (Nanostring Ymax greater than 50.0 and less than or equal to 100.0) | + (MS Emax % adduct formation greater than or equal to 0.0 and less than or equal to 30.0) | ≤ 200 | ≤ 200 | ≤ 100 | –
C=CC(=O)N(C)Cc1nn(-c2ccccc2)c2c1[C@H](c1ccc(F)cc1)[C@H](NC(=O)c1cccc(C(F)(F)F)c1)C(=O)N2CC (racemic) [Compound I-29] | > 1000 | + (Nanostring Ymax greater than or equal to 0.0 and less than or equal to 50.0) | + (MS Emax % adduct formation greater than or equal to 0.0 and less than or equal to 30.0) | 1000 to 3000 | – | > 1000 | 1000 to 3000
CCN1C(=O)[C@@H](NC(=O)c2cccc(C(F)(F)F)c2)[C@@H](c2ccc(F)cc2)c2c([C@@H](C)NC(=O)C(C)Br)nn(-c3ccccc3)c21 (stereo in doubt) [Compound I-197] | > 1000 | ++ (Nanostring Ymax greater than 50.0 and less than or equal to 100.0) | + (MS Emax % adduct formation greater than or equal to 0.0 and less than or equal to 30.0) | – | – | > 1000 | –
